According to ChEMBL document CHEMBL4699440, “Comprehensive review on the anti-bacterial activity of 1,2,3-triazole hybrids” (Eur J Med Chem, 2019):
≈ marks a conversion by molar mass, not a printed value. Values belong to the compound of their own block, whether it stands above or below them.

How the values were obtained:
Type in all cases: functional
Curvularia lunata = test: Antifungal activity against Curvularia lunata NCIM 1131 incubated for 48 hrs
Aspergillus niger = test: Antifungal activity against Aspergillus niger NCIM 1196 incubated for 48 hrs
Penicillium chrysogenum = test: Antifungal activity against Penicillium chrysogenum NCIM 723 incubated for 48 hrs
Escherichia coli [1] = test: Antibacterial activity against ESBL-producing Escherichia coli ATCC 25925 by CLSI-based broth dilution method
Staphylococcus aureus [2] = test: Antibacterial activity against methicillin-resistant Staphylococcus aureus ATCC 25923 by CLSI-based broth dilution method
Enterococcus faecium = test: Antibacterial activity against vancomycin-resistant Enterococcus faecium by CLSI-based broth dilution method; conditions: time 24 hrs
Klebsiella pneumoniae = test: Antibacterial activity against Klebsiella pneumoniae ATCC 27736 by CLSI-based broth dilution method
Pseudomonas aeruginosa [3] = test: Antibacterial activity against Pseudomonas aeruginosa ATCC 27853 by CLSI-based broth dilution method
Staphylococcus aureus [4] = test: Antibacterial activity against methicillin-sensitive Staphylococcus aureus by CLSI-based broth dilution method
Bacillus cereus [5] = test: Antibacterial activity against Bacillus cereus by agar dilution method
Pseudomonas aeruginosa [6] = test: Antibacterial activity against Pseudomonas aeruginosa by agar dilution method
Escherichia coli [7] = test: Antibacterial activity against Escherichia coli by agar dilution method
Staphylococcus aureus [8] = test: Antibacterial activity against Staphylococcus aureus by agar dilution method
Bacillus cereus [9] = test: Antibacterial activity against Bacillus cereus ATCC 6630 incubated for 24 hrs
Micrococcus luteus = test: Antibacterial activity against Micrococcus Luteus ATCC 398 incubated for 24 hrs
Pseudomonas fluorescens = test: Antibacterial activity against Pseudomonas fluorescens NCIM 2173 incubated for 24 hrs
Staphylococcus aureus [10] = test: Antibacterial activity against Staphylococcus aureus ATCC 29737 incubated for 24 hrs
Escherichia coli [11] = test: Antibacterial activity against Escherichia coli NCIM 2256 incubated for 24 hrs
[12] = test system: Sphingomonas paucimobilis; test: Antibacterial activity against Flavobacterium devorans ATCC 10829 incubated for 24 hrs
Bacillus cereus [13] = test: Antibacterial activity against Bacillus cereus MTCC 430 incubated for 24 hrs by macrodilution tube method
Staphylococcus aureus [14] = test: Antibacterial activity against Staphylococcus aureus MTCC 96 incubated for 24 hrs by macrodilution tube method

MIC (Bacillus cereus [5]): 4 µg/mL (≈ 7.35 µM)
MIC (Pseudomonas aeruginosa [6]): 4 µg/mL (≈ 7.35 µM)
MIC (Escherichia coli [7]): 4 µg/mL (≈ 7.35 µM)
MIC (Staphylococcus aureus [8]): 4 µg/mL (≈ 7.35 µM)
Compound: O=C(N/N=C/c1cn(-c2ccccc2)nc1-c1ccc(Cl)cc1)c1cccc(-n2cc(-c3ccccc3)nn2)c1

MIC (Curvularia lunata): 2 µg/mL (≈ 5.29 µM)
MIC (Bacillus cereus [9]): 2 µg/mL (≈ 5.29 µM)
MIC (Aspergillus niger): 2 µg/mL (≈ 5.29 µM)
MIC (Micrococcus luteus): 2 µg/mL (≈ 5.29 µM)
MIC (Pseudomonas fluorescens): 2 µg/mL (≈ 5.29 µM)
MIC (Staphylococcus aureus [10]): 2 µg/mL (≈ 5.29 µM)
MIC (Escherichia coli [11]): 2 µg/mL (≈ 5.29 µM)
MIC (Penicillium chrysogenum): 2 µg/mL (≈ 5.29 µM)
MIC [12]: 2 µg/mL (≈ 5.29 µM)
Compound: O=c1cc(OCc2cn(Cc3cccc([N+](=O)[O-])c3)nn2)c2ccccc2o1

MIC (Bacillus cereus [5]): 2 µg/mL (≈ 3.82 µM)
MIC (Pseudomonas aeruginosa [6]): 2 µg/mL (≈ 3.82 µM)
MIC (Escherichia coli [7]): 2 µg/mL (≈ 3.82 µM)
MIC (Staphylococcus aureus [8]): 2 µg/mL (≈ 3.82 µM)
Compound: Cc1ccc(-c2nn(-c3ccccc3)cc2/C=N/NC(=O)c2cccc(-n3cc(-c4ccccc4)nn3)c2)cc1

MIC (Bacillus cereus [13]): 16 µg/mL (≈ 25.2 µM)
MIC (Staphylococcus aureus [14]): 16 µg/mL (≈ 25.2 µM)
Compound: O=C1CCCC2=C1C(c1cccc3ccccc13)c1cc3cc(OCc4cn(-c5ccnc6cc(Cl)ccc56)nn4)ccc3cc1O2 (stereo not given)

MIC (Curvularia lunata): 2 µg/mL (≈ 5.1 µM)
MIC (Bacillus cereus [9]): 2 µg/mL (≈ 5.1 µM)
MIC (Aspergillus niger): 2 µg/mL (≈ 5.1 µM)
MIC (Micrococcus luteus): 2 µg/mL (≈ 5.1 µM)
MIC (Pseudomonas fluorescens): 2 µg/mL (≈ 5.1 µM)
MIC (Staphylococcus aureus [10]): 2 µg/mL (≈ 5.1 µM)
MIC (Escherichia coli [11]): 2 µg/mL (≈ 5.1 µM)
MIC (Penicillium chrysogenum): 2 µg/mL (≈ 5.1 µM)
MIC [12]: 2 µg/mL (≈ 5.1 µM)
Compound: Cc1cc(OCc2cn(Cc3cccc([N+](=O)[O-])c3)nn2)cc2oc(=O)ccc12

MIC (Bacillus cereus [13]): 16 µg/mL (≈ 24.9 µM)
MIC (Staphylococcus aureus [14]): 16 µg/mL (≈ 24.9 µM)
Compound: COc1ccc(C2C3=C(CC(C)(C)CC3=O)Oc3cc4ccc(OCc5cn(-c6ccnc7cc(Cl)ccc67)nn5)cc4cc32)cc1 (stereo not given)

MIC (Bacillus cereus [5]): 2 µg/mL (≈ 3.61 µM)
MIC (Pseudomonas aeruginosa [6]): 2 µg/mL (≈ 3.61 µM)
MIC (Escherichia coli [7]): 2 µg/mL (≈ 3.61 µM)
MIC (Staphylococcus aureus [8]): 2 µg/mL (≈ 3.61 µM)
Compound: O=C(N/N=C/c1cn(-c2ccccc2)nc1-c1ccc([N+](=O)[O-])cc1)c1cccc(-n2cc(-c3ccccc3)nn2)c1

MIC (Bacillus cereus [13]): 16 µg/mL (≈ 24.1 µM)
MIC (Staphylococcus aureus [14]): 16 µg/mL (≈ 24.1 µM)
Compound: CC1(C)CC(=O)C2=C(C1)Oc1cc3ccc(OCc4cn(-c5ccnc6cc(Cl)ccc56)nn4)cc3cc1C2c1cccc2ccccc12 (stereo not given)

MIC (Bacillus cereus [5]): 2 µg/mL (≈ 3.4 µM)
MIC (Pseudomonas aeruginosa [6]): 2 µg/mL (≈ 3.4 µM)
MIC (Escherichia coli [7]): 2 µg/mL (≈ 3.4 µM)
MIC (Staphylococcus aureus [8]): 2 µg/mL (≈ 3.4 µM)
Compound: O=C(N/N=C/c1cn(-c2ccccc2)nc1-c1ccc(Br)cc1)c1cccc(-n2cc(-c3ccccc3)nn2)c1

MIC (Bacillus cereus [5]): 2 µg/mL (≈ 3.79 µM)
MIC (Pseudomonas aeruginosa [6]): 2 µg/mL (≈ 3.79 µM)
MIC (Escherichia coli [7]): 2 µg/mL (≈ 3.79 µM)
MIC (Staphylococcus aureus [8]): 2 µg/mL (≈ 3.79 µM)
Compound: O=C(N/N=C/c1cn(-c2ccccc2)nc1-c1ccc(F)cc1)c1cccc(-n2cc(-c3ccccc3)nn2)c1

Further lines, the compound ahead of its results:

Compound: Clc1ccc(COC(Cn2ccnc2)c2ccc(Cl)cc2Cl)c(Cl)c1 (stereo not given) [MICONAZOLE]
MIC (Curvularia lunata): 16 µg/mL (≈ 38.4 µM)
MIC (Aspergillus niger): 16 µg/mL (≈ 38.4 µM)
MIC (Penicillium chrysogenum): 16 µg/mL (≈ 38.4 µM)

Compound: c1ccc(-n2cc(COc3ccc(-c4nc5cc(C6=NCCN6)ccc5[nH]4)cc3)nn2)cc1
MIC (Escherichia coli [1]): 8 µg/mL (≈ 18.4 µM)
MIC (Staphylococcus aureus [2]): 8 µg/mL (≈ 18.4 µM)
MIC (Enterococcus faecium): 8 µg/mL (≈ 18.4 µM)
MIC (Klebsiella pneumoniae): 8 µg/mL (≈ 18.4 µM)
MIC (Pseudomonas aeruginosa [3]): 8 µg/mL (≈ 18.4 µM)
MIC (Staphylococcus aureus [4]): 8 µg/mL (≈ 18.4 µM)

Compound: O=c1cc(OCc2cn(Cc3cccc(Cl)c3)nn2)c2ccccc2o1
MIC (Curvularia lunata): 2 µg/mL (≈ 5.44 µM)
MIC (Bacillus cereus [9]): 2 µg/mL (≈ 5.44 µM)
MIC (Aspergillus niger): 2 µg/mL (≈ 5.44 µM)
MIC (Micrococcus luteus): 2 µg/mL (≈ 5.44 µM)
MIC (Pseudomonas fluorescens): 2 µg/mL (≈ 5.44 µM)
MIC (Staphylococcus aureus [10]): 2 µg/mL (≈ 5.44 µM)
MIC (Escherichia coli [11]): 2 µg/mL (≈ 5.44 µM)
MIC (Penicillium chrysogenum): 2 µg/mL (≈ 5.44 µM)
MIC [12]: 2 µg/mL (≈ 5.44 µM)

Compound: N=C(N)c1ccc2[nH]c(-c3ccc(OCc4cn(-c5ccccc5)nn4)cc3)nc2c1
MIC (Escherichia coli [1]): 16 µg/mL (≈ 39.1 µM)
MIC (Staphylococcus aureus [2]): 16 µg/mL (≈ 39.1 µM)
MIC (Enterococcus faecium): 16 µg/mL (≈ 39.1 µM)
MIC (Klebsiella pneumoniae): 16 µg/mL (≈ 39.1 µM)
MIC (Pseudomonas aeruginosa [3]): 16 µg/mL (≈ 39.1 µM)
MIC (Staphylococcus aureus [4]): 16 µg/mL (≈ 39.1 µM)

Compound: O=c1cc(OCc2cn(Cc3ccc(Br)cc3)nn2)c2ccccc2o1
MIC (Curvularia lunata): 2 µg/mL (≈ 4.85 µM)
MIC (Bacillus cereus [9]): 2 µg/mL (≈ 4.85 µM)
MIC (Aspergillus niger): 2 µg/mL (≈ 4.85 µM)
MIC (Micrococcus luteus): 2 µg/mL (≈ 4.85 µM)
MIC (Pseudomonas fluorescens): 2 µg/mL (≈ 4.85 µM)
MIC (Staphylococcus aureus [10]): 2 µg/mL (≈ 4.85 µM)
MIC (Escherichia coli [11]): 2 µg/mL (≈ 4.85 µM)
MIC (Penicillium chrysogenum): 2 µg/mL (≈ 4.85 µM)
MIC [12]: 2 µg/mL (≈ 4.85 µM)

Compound: Clc1ccc(-n2cc(COc3ccc(-c4nc5cc(C6=NCCN6)ccc5[nH]4)cc3)nn2)cc1
MIC (Escherichia coli [1]): 8 µg/mL (≈ 17 µM)
MIC (Staphylococcus aureus [2]): 8 µg/mL (≈ 17 µM)
MIC (Enterococcus faecium): 8 µg/mL (≈ 17 µM)
MIC (Klebsiella pneumoniae): 8 µg/mL (≈ 17 µM)
MIC (Pseudomonas aeruginosa [3]): 8 µg/mL (≈ 17 µM)
MIC (Staphylococcus aureus [4]): 8 µg/mL (≈ 17 µM)

Compound: O=c1cc(OCc2cn(Cc3ccc(Cl)cc3)nn2)c2ccccc2o1
MIC (Curvularia lunata): 2 µg/mL (≈ 5.44 µM)
MIC (Bacillus cereus [9]): 2 µg/mL (≈ 5.44 µM)
MIC (Aspergillus niger): 2 µg/mL (≈ 5.44 µM)
MIC (Micrococcus luteus): 2 µg/mL (≈ 5.44 µM)
MIC (Pseudomonas fluorescens): 2 µg/mL (≈ 5.44 µM)
MIC (Staphylococcus aureus [10]): 2 µg/mL (≈ 5.44 µM)
MIC (Escherichia coli [11]): 2 µg/mL (≈ 5.44 µM)
MIC (Penicillium chrysogenum): 2 µg/mL (≈ 5.44 µM)
MIC [12]: 2 µg/mL (≈ 5.44 µM)

Compound: NC[C@H]1O[C@H](O[C@H]2[C@H](O)[C@@H](O[C@H]3O[C@H](CO)[C@@H](O)[C@H](N)[C@H]3O)[C@H](N)C[C@@H]2N)[C@H](O)[C@@H](O)[C@@H]1O [KANAMYCIN]
MIC (Bacillus cereus [9]): 2 µg/mL (≈ 4.13 µM)
MIC (Micrococcus luteus): 2 µg/mL (≈ 4.13 µM)
MIC (Pseudomonas fluorescens): 2 µg/mL (≈ 4.13 µM)
MIC (Staphylococcus aureus [10]): 2 µg/mL (≈ 4.13 µM)
MIC (Escherichia coli [11]): 2 µg/mL (≈ 4.13 µM)
MIC [12]: 2 µg/mL (≈ 4.13 µM)

Compound: CC(C)NC(=N)c1ccc2[nH]c(-c3ccc(OCc4cn(-c5ccccc5)nn4)cc3)nc2c1
MIC (Escherichia coli [1]): 8 µg/mL (≈ 17.7 µM)
MIC (Staphylococcus aureus [2]): 8 µg/mL (≈ 17.7 µM)
MIC (Enterococcus faecium): 8 µg/mL (≈ 17.7 µM)
MIC (Klebsiella pneumoniae): 8 µg/mL (≈ 17.7 µM)
MIC (Pseudomonas aeruginosa [3]): 8 µg/mL (≈ 17.7 µM)
MIC (Staphylococcus aureus [4]): 8 µg/mL (≈ 17.7 µM)

Compound: COc1ccc(-n2cc(COc3ccc(-c4nc5cc(C(=N)NC(C)C)ccc5[nH]4)cc3)nn2)cc1
MIC (Escherichia coli [1]): 8 µg/mL (≈ 16.6 µM)
MIC (Staphylococcus aureus [2]): 8 µg/mL (≈ 16.6 µM)
MIC (Enterococcus faecium): 8 µg/mL (≈ 16.6 µM)
MIC (Klebsiella pneumoniae): 8 µg/mL (≈ 16.6 µM)
MIC (Pseudomonas aeruginosa [3]): 8 µg/mL (≈ 16.6 µM)
MIC (Staphylococcus aureus [4]): 8 µg/mL (≈ 16.6 µM)
